Assay results reported in patent publication US4585877A, “Process for preparing 1,8-diethyl-1,3,4,9-tetrahydropyrano(3,4-b)-indole-1-acetic acid, etodolac” (American Home Products Corporation, priority 1985, dated 1986).
Like-named read-outs stand apart in the source and are kept apart here.

Columns and labels:
[1] = tested on: adjuvant edema; assay: Preventive Adjuvant Edema test (antiinflammatory activity); assay type: in vivo; settings: po
[2] = tested on: Phenylquinone-induced writhing; assay: Effects on Phenylquinone-Induced Writhing in Mice test (analgesic activity); assay type: in vivo; settings: Mus musculus, po, read-out: antinociceptive ED50

Structure (SMILES)	ED50 [1]	ED50 [2]	ED50 ([1]; Preventive Adjuvant-Edema, p.o., read-out: ED50)	ED50 ([2]; Phenylquinone-induced writhing in mice, p.o.)
CC(=O)Oc1ccccc1C(=O)O [aspirin]	184 mg/kg	54 mg/kg	–	–
CCc1cccc2c3c([nH]c12)C(CC)(CC(=O)O)OCC3 (stereo not shown) [etodolac, 1,8-Diethyl-1,3,4,9-tetrahydropyrano[3,4-b]indole-1-acetic Acid]	–	–	4 mg/kg	154 mg/kg
